Read-outs that look alike come from different tables or passages of the source.
Experiment: Pharmacokinetic evaluation in humans
Type: in vivo
Conditions: human; for clearance / Cmax / Vd / half-life / AUC(0-t) / AUC(0-inf): plasma
Method: Plasma and urine RLip-EA-OH concentrations were measured at BASi, Inc. (West Lafayette, Ind.) using a LC/MS/MS method with positive turbo ion spray, in the multiple reaction-monitoring mode. The quantifiable range for human plasma was 1.00 to 500 ng/mL and QC samples were included at 3.00, 75.0 and 375 ng/mL.
The PK population included subjects who received RLip-EA-OH and had ≧1 post-dose PK measurement. […] Plasma samples from 24 subjects (6 RLip-EA-OH subjects per cohort) were analyzed (Tables 16 and 17).

Q: For `C[C@H](NC(=O)[C@H](CCC(=O)O)NC(=O)CCCC[C@@H]1CCSS1)C(=O)O` [RLip-EA-OH, N-(R)-lipoyl-L-glutamyl-L- alanine], which clearance (150 mg, compartmental, read-out: CL, Median (converted)) is on record?
A: The clearance was 363 mL/min.

Q: And the clearance (150 mg, compartmental, read-out: CL, Minimum, maximum)?
A: The clearance was 260 to 512 mL/min.

Q: What about the Cmax (150 mg, compartmental, read-out: Estimated Cmax, Mean (SD)) of the same compound?
A: Its Cmax is 18100 ng/mL.

Q: What about the Cmax (150 mg, compartmental, read-out: Estimated Cmax, Median) of the same compound?
A: The Cmax was 18400 ng/mL.

Q: What about the Cmax (150 mg, compartmental, read-out: Estimated Cmax, Minimum, maximum) of the same compound?
A: The Cmax was 14200 to 20600 ng/mL.

Q: What about the Vd (150 mg, compartmental, read-out: Vss, Mean (SD)) of the same compound?
A: The Vd was 13 L.

Q: And the Vd (150 mg, compartmental, read-out: Vss, Median)?
A: The Vd was 13 L.

Q: And the Vd (150 mg, compartmental, read-out: Vss, Minimum, maximum)?
A: The Vd was 9 to 17 L.

Q: What about the half-life (150 mg, compartmental, read-out: t1/2, Mean (SD) (converted)) of the same compound?
A: Its half-life is 1.8 h.

Q: And the half-life (150 mg, compartmental, read-out: t1/2, Median (converted))?
A: Its half-life is 1.4 h.

Q: And the half-life (150 mg, compartmental, read-out: t1/2, Minimum, maximum)?
A: The half-life was 1.1 to 3.3 h.

Q: And the AUC(0-t) (150 mg, noncompartmental, read-out: AUC0-t, Mean (SD))?
A: The AUC(0-t) was 6980 ng·h/mL.

Q: And the AUC(0-t) (150 mg, noncompartmental, read-out: AUC0-t, Median)?
A: The AUC(0-t) was 6900 ng·h/mL.

Q: And the AUC(0-t) (150 mg, noncompartmental, read-out: AUC0-t, Minimum, maximum)?
A: The AUC(0-t) was 4970 to 9330 ng·h/mL.

Q: And the AUC(0-inf) (150 mg, noncompartmental, read-out: AUCinf, Mean (SD))?
A: The AUC(0-inf) was 6990 ng·h/mL.

Q: What about the AUC(0-inf) (150 mg, noncompartmental, read-out: AUCinf, Median) of the same compound?
A: Its AUC(0-inf) is 6920 ng·h/mL.

Q: What about the AUC(0-inf) (150 mg, noncompartmental, read-out: AUCinf, Minimum, maximum) of the same compound?
A: Its AUC(0-inf) is 4980 to 9340 ng·h/mL.

Q: And the clearance (150 mg, noncompartmental, read-out: CL, Mean (SD) (converted))?
A: The clearance was 372 mL/min.

Q: What about the clearance (150 mg, noncompartmental, read-out: CL, Median (converted)) of the same compound?
A: Its clearance is 363 mL/min.

Q: What about the clearance (150 mg, noncompartmental, read-out: CL, Minimum, maximum) of the same compound?
A: Its clearance is 268 to 502 mL/min.

Q: What about the Cmax (150 mg, noncompartmental, read-out: Cmax, Mean (SD)) of the same compound?
A: The Cmax was 17100 ng/mL.

Q: And the Cmax (150 mg, noncompartmental, read-out: Cmax, Median)?
A: Its Cmax is 17000 ng/mL.

Q: And the Cmax (150 mg, noncompartmental, read-out: Cmax, Minimum, maximum)?
A: The Cmax was 14900 to 20000 ng/mL.

Q: What about the Vd (150 mg, noncompartmental, read-out: Vss, Mean (SD)) of the same compound?
A: The Vd was 13.6 L.

Q: What about the Vd (150 mg, noncompartmental, read-out: Vss, Median) of the same compound?
A: The Vd was 13.2 L.

Q: And the Vd (150 mg, noncompartmental, read-out: Vss, Minimum, maximum)?
A: Its Vd is 9.9 to 16.6 L.

Q: What about the half-life (150 mg, noncompartmental, read-out: t1/2, Mean (SD) (converted)) of the same compound?
A: Its half-life is 1.23 h.

Q: And the half-life (150 mg, noncompartmental, read-out: t1/2, Median (converted))?
A: Its half-life is 1.25 h.

Q: What about the half-life (150 mg, noncompartmental, read-out: t1/2, Minimum, maximum) of the same compound?
A: The half-life was 0.97 to 1.52 h.

Q: And the AUC(0-inf) (300 mg, compartmental, read-out: AUCinf, Mean (SD))?
A: The AUC(0-inf) was 16400 ng·h/mL.

Q: And the AUC(0-inf) (300 mg, compartmental, read-out: AUCinf, Median)?
A: The AUC(0-inf) was 16400 ng·h/mL.

Q: What about the AUC(0-inf) (300 mg, compartmental, read-out: AUCinf, Minimum, maximum) of the same compound?
A: Its AUC(0-inf) is 11500 to 22600 ng·h/mL.

Q: And the clearance (300 mg, compartmental, read-out: CL, Mean (SD) (converted))?
A: Its clearance is 323 mL/min.

Q: And the clearance (300 mg, compartmental, read-out: CL, Median (converted))?
A: Its clearance is 305 mL/min.

Q: And the clearance (300 mg, compartmental, read-out: CL, Minimum, maximum)?
A: The clearance was 222 to 435 mL/min.

Q: What about the Cmax (300 mg, compartmental, read-out: Estimated Cmax, Mean (SD)) of the same compound?
A: The Cmax was 46300 ng/mL.

Q: What about the Cmax (300 mg, compartmental, read-out: Estimated Cmax, Median) of the same compound?
A: Its Cmax is 43400 ng/mL.

Q: And the Cmax (300 mg, compartmental, read-out: Estimated Cmax, Minimum, maximum)?
A: Its Cmax is 31000 to 70100 ng/mL.

Q: And the Vd (300 mg, compartmental, read-out: Vss, Mean (SD))?
A: The Vd was 11 L.

Q: What about the Vd (300 mg, compartmental, read-out: Vss, Median) of the same compound?
A: Its Vd is 11 L.

Q: What about the Vd (300 mg, compartmental, read-out: Vss, Minimum, maximum) of the same compound?
A: The Vd was 8 to 16 L.

Q: And the half-life (300 mg, compartmental, read-out: t1/2, Mean (SD) (converted))?
A: Its half-life is 1.5 h.

Q: What about the half-life (300 mg, compartmental, read-out: t1/2, Median (converted)) of the same compound?
A: The half-life was 1.2 h.

Q: What about the half-life (300 mg, compartmental, read-out: t1/2, Minimum, maximum) of the same compound?
A: Its half-life is 1 to 2.5 h.

Q: What about the AUC(0-t) (300 mg, noncompartmental, read-out: AUC0-t, Mean (SD)) of the same compound?
A: Its AUC(0-t) is 16500 ng·h/mL.

Q: What about the AUC(0-t) (300 mg, noncompartmental, read-out: AUC0-t, Median) of the same compound?
A: Its AUC(0-t) is 16500 ng·h/mL.

Q: What about the AUC(0-t) (300 mg, noncompartmental, read-out: AUC0-t, Minimum, maximum) of the same compound?
A: Its AUC(0-t) is 11600 to 23100 ng·h/mL.

Q: What about the AUC(0-inf) (300 mg, noncompartmental, read-out: AUCinf, Mean (SD)) of the same compound?
A: Its AUC(0-inf) is 16500 ng·h/mL.

Q: And the AUC(0-inf) (300 mg, noncompartmental, read-out: AUCinf, Median)?
A: The AUC(0-inf) was 16500 ng·h/mL.

Q: What about the AUC(0-inf) (300 mg, noncompartmental, read-out: AUCinf, Minimum, maximum) of the same compound?
A: The AUC(0-inf) was 11600 to 23100 ng·h/mL.

Q: And the clearance (300 mg, noncompartmental, read-out: CL, Mean (SD) (converted))?
A: Its clearance is 322 mL/min.

Q: And the clearance (300 mg, noncompartmental, read-out: CL, Median (converted))?
A: The clearance was 303 mL/min.

Q: And the clearance (300 mg, noncompartmental, read-out: CL, Minimum, maximum)?
A: The clearance was 217 to 430 mL/min.

Q: And the Cmax (300 mg, noncompartmental, read-out: Cmax, Mean (SD))?
A: The Cmax was 42200 ng/mL.

Q: And the Cmax (300 mg, noncompartmental, read-out: Cmax, Median)?
A: Its Cmax is 42200 ng/mL.

Q: What about the Cmax (300 mg, noncompartmental, read-out: Cmax, Minimum, maximum) of the same compound?
A: Its Cmax is 32000 to 58100 ng/mL.

Q: And the Vd (300 mg, noncompartmental, read-out: Vss, Mean (SD))?
A: Its Vd is 11.7 L.

Q: What about the Vd (300 mg, noncompartmental, read-out: Vss, Median) of the same compound?
A: Its Vd is 11.1 L.

Q: And the Vd (300 mg, noncompartmental, read-out: Vss, Minimum, maximum)?
A: The Vd was 8.9 to 15.1 L.

Q: What about the half-life (300 mg, noncompartmental, read-out: t1/2, Mean (SD) (converted)) of the same compound?
A: Its half-life is 1.45 h.

Q: What about the half-life (300 mg, noncompartmental, read-out: t1/2, Median (converted)) of the same compound?
A: Its half-life is 1.14 h.

Q: What about the half-life (300 mg, noncompartmental, read-out: t1/2, Minimum, maximum) of the same compound?
A: The half-life was 0.99 to 2.35 h.

Q: What about the clearance (300 mg, read-out: CL (converted)) of the same compound?
A: Its clearance is 322 mL/min.

Q: And the half-life (300 mg, read-out: mean terminal-phase t1/2 (converted))?
A: Its half-life is 1.45 h.

Q: What about the AUC(0-inf) (across doses 20 to 300 mg, read-out: AUCinf) of the same compound?
A: The AUC(0-inf) was 583 to 16500 ng·h/mL.

Q: What about the half-life (at the mg dose, read-out: mean terminal-phase t1/2 (converted)) of the same compound?
A: The half-life was 0.86 h.

Q: And the Vd (decreased with increasing dose, read-out: Vss)?
A: The Vd was 12 to 18 L.

Q: And the Vd (read-out: volume of distribution of the central compartment (Vc))?
A: The Vd was roughly 6 L.

Q: And the “V1, Mean (SD)” value (20 mg, compartmental)?
A: Its value is 6.61 (3.20) L.

Q: What about the “V1, Median” value (20 mg, compartmental) of the same compound?
A: The value was 6.13 L.

Q: And the “% Excreted Unchanged, Mean (SD)” value (20 mg, noncompartmental)?
A: Its value is 28.5 (9.6) %.

Q: What about the “% Excreted Unchanged, Median” value (20 mg, noncompartmental) of the same compound?
A: The value was 31.0%.

Q: What about the “V1, Mean (SD)” value (60 mg, compartmental) of the same compound?
A: The value was 6.62 (1.65) L.

Q: What about the “V1, Median” value (60 mg, compartmental) of the same compound?
A: The value was 6.69 L.

Q: What about the “% Excreted Unchanged, Mean (SD)” value (60 mg, noncompartmental) of the same compound?
A: The value was 39.1 (4.0) %.

Q: And the “% Excreted Unchanged, Median” value (60 mg, noncompartmental)?
A: Its value is 40.6%.

Q: And the “V1, Mean (SD)” value (150 mg, compartmental)?
A: The value was 6.09 (1.42) L.

Q: What about the “V1, Median” value (150 mg, compartmental) of the same compound?
A: The value was 5.86 L.

Q: And the “% Excreted Unchanged, Mean (SD)” value (150 mg, noncompartmental)?
A: The value was 32.5 (13.9) %.

Q: And the “% Excreted Unchanged, Median” value (150 mg, noncompartmental)?
A: The value was 33.3%.

Q: And the “V1, Mean (SD)” value (300 mg, compartmental)?
A: Its value is 4.91 (1.56) L.

Q: What about the “V1, Median” value (300 mg, compartmental) of the same compound?
A: Its value is 5.59 L.

Q: What about the “% Excreted Unchanged, Mean (SD)” value (300 mg, noncompartmental) of the same compound?
A: Its value is 43.6 (8.8) %.

Q: What about the “% Excreted Unchanged, Median” value (300 mg, noncompartmental) of the same compound?
A: Its value is 46.3%.
